Measurements published in the supplement of paper PMC10627819.

How the values were obtained:
[1] = system: S. aureus Newman; assay: Bliss interaction score (quartile over a dose matrix) (fitness difference); higher = more antagonism (negative = synergy)
Procedure, shortened: (§1)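 Each OD595 reading at entry into stationary phase was scaled to the robust mean of the untreated wells on its plate, with a ceiling of 1. These ratios define fitness, and single-drug fitness was inferred from combinations. The Bliss score compares observed fitness with the product-based expectation and is reported as quartiles across all replicate types, technical, biological and donor/recipient.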

[2] = system: B. subtilis 168; assay: as above
Procedure, shortened: as §1

[3] = system: S. aureus DSM 20231; assay: as above
Procedure, shortened: as §1

[4] = system: S. pneumoniae D39V; assay: as above
Procedure, shortened: as §1

[5] = system: S. aureus Newman; assay: fitness (endpoint OD595 vs no drug) (fraction); higher = more growth; settings: one replicate
Procedure, shortened: (§2)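 Background-subtracted growth curves were the basis for fitness, taken as the optical density at entry into stationary phase over the robust mean of no-drug control wells. A cap of 1 was applied. The curves came from OD595 readings every 30 min for 14 h at 37 °C, in 384-well plates seeded at OD595 0.01 with 30 µl, or 55 µl for S. pneumoniae.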

[6] = system: B. subtilis 168; assay: as above
Procedure, shortened: as §2

[7] = system: S. pneumoniae D39V; assay: as above
Procedure, shortened: as §2
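Wherever Bliss interaction score (quartile over a dose matrix) is given: first quartile when negative (synergy) and third quartile when positive (antagonism).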

CO/N=C(\C(=O)N[C@@H]1C(=O)N2C(C(=O)O)=C(COC(C)=O)CS[C@H]12)c1csc(N)n1 [Cefotaxime] + CO/N=C(\C(=O)N[C@@H]1C(=O)N2C(C(=O)O)=C(COC(N)=O)CS[C@H]12)c1ccco1 [Cefuroxime]
Settings | Bliss interaction score
[1] | -0.0451
[2] | 0.0852
[3] | 0.107
[4] | -0.0369

fitness, [5]
Settings | first compound 0.078 µg/mL | first compound 0.156 µg/mL | first compound 0.312 µg/mL
partner 0.04875 µg/mL | 0.834 | 0.698 | 0.384
partner 0.0975 µg/mL | 0.798 | 0.574 | 0.295
partner 0.195 µg/mL | 0.84 | 0.596 | 0.237

fitness, [6], one replicate
Settings | first compound 0.00775 µg/mL | first compound 0.0155 µg/mL | first compound 0.031 µg/mL | first compound 0.0625 µg/mL | first compound 0.125 µg/mL | first compound 0.25 µg/mL | first compound 0.5 µg/mL | first compound 1 µg/mL | first compound 2 µg/mL
partner 0.04875 µg/mL | – | – | – | 0.421 | 0.41 | 0.354 | 0.0782 | 0.0681 | 0.0589
partner 0.0975 µg/mL | – | – | – | 0.492 | 0.444 | 0.451 | 0.0682 | 0.0388 | 0.0337
partner 0.195 µg/mL | 0.236 | 0.172 | 0.176 | 0.329 | 0.331 | 0.305 | 0.0838 | 0.0517 | 0.0469
partner 0.39 µg/mL | 0.194 | 0.121 | 0.138 | – | – | – | – | – | –
partner 0.78 µg/mL | 0.147 | 0.0786 | 0.0789 | – | – | – | – | – | –
partner 1.562 µg/mL | – | – | – | – | – | – | 0.308 | 0.139 | 0.161
partner 3.125 µg/mL | – | – | – | – | – | – | 0.286 | 0.1 | 0.138
partner 6.25 µg/mL | – | – | – | – | – | – | 0.261 | 0.114 | 0.0944

CO/N=C(\C(=O)N[C@@H]1C(=O)N2C(C(=O)O)=C(COC(C)=O)CS[C@H]12)c1csc(N)n1 [Cefotaxime] + C/C(=C\C(=O)OCCCCCCCCC(=O)O)C[C@@H]1OC[C@H](C[C@@H]2O[C@H]2[C@@H](C)[C@H](C)O)[C@@H](O)[C@H]1O [Pseudomonic acid]
Settings | Bliss interaction score
[1] | 0.022
[2] | 0.0549
[3] | 0.0223
[4] | 0.0643

fitness
Settings | first compound 0.0018 µg/mL | first compound 0.0035 µg/mL | first compound 0.007 µg/mL | first compound 0.078 µg/mL | first compound 0.156 µg/mL | first compound 0.312 µg/mL
[5], partner 0.0313 µg/mL | – | – | – | 0.054 | 0.0458 | 0.0509
[5], partner 0.0625 µg/mL | – | – | – | 0.0409 | 0.0394 | 0.0414
[5], partner 0.125 µg/mL | – | – | – | 0.0477 | 0.0707 | 0.0616
[7], partner 0.03 µg/mL | 0.978 | 0.962 | 0.962 | – | – | –
[7], partner 0.06 µg/mL | 0.833 | 0.862 | 0.809 | – | – | –
[7], partner 0.12 µg/mL | 0.551 | 0.56 | 0.517 | – | – | –

CO/N=C(\C(=O)N[C@@H]1C(=O)N2C(C(=O)O)=C(COC(N)=O)CS[C@H]12)c1ccco1 [Cefuroxime] + CC(C1CCC(C(O1)OC2C(CC(C(C2O)OC3C(C(C(CO3)(C)O)NC)O)N)N)N)NC [Gentamicin]
main component drawn
Settings | Bliss interaction score
[1] | -0.165
[2] | 0.0914
[3] | -0.313
[4] | -0.0232

fitness, main component drawn
Settings | first compound 0.04875 µg/mL | first compound 0.0975 µg/mL | first compound 0.195 µg/mL
[5], partner 1 µg/mL | 0.937 | 0.923 | 0.942
[5], partner 2 µg/mL | 0.867 | 0.723 | 0.628
[5], partner 4 µg/mL | 0.0568 | 0.0486 | 0.0654
[6], partner 0.0625 µg/mL | 0.708 | 0.675 | 0.587
[6], partner 0.125 µg/mL | – | 0.379 | 0.0507
[6], partner 0.25 µg/mL | 0.0653 | 0.0449 | 0.0518

fitness, [6], one replicate, main component drawn
Settings | first compound 0.39 µg/mL | first compound 0.78 µg/mL | first compound 1.562 µg/mL | first compound 3.125 µg/mL | first compound 6.25 µg/mL
partner 0.0625 µg/mL | 0.6 | 0.549 | 0.249 | 0.0632 | 0.0658
partner 0.125 µg/mL | 0.202 | 0.142 | 0.0288 | 0.0271 | 0.0297
partner 0.25 µg/mL | 0.152 | 0.0935 | 0.0323 | 0.029 | 0.0215

CO/N=C(\C(=O)N[C@@H]1C(=O)N2C(C(=O)O)=C(COC(N)=O)CS[C@H]12)c1ccco1 [Cefuroxime] + COc1cccc2c1C(=O)c1c(O)c3c(c(O)c1C2=O)C[C@@](O)(C(=O)CO)C[C@@H]3O[C@H]1C[C@H](N)[C@H](O)[C@H](C)O1 [Doxorubicin]
Settings | Bliss interaction score
[1] | -0.0601
[2] | -0.158
[3] | 0.0859
[4] | -0.0401

fitness
Settings | first compound 0.04875 µg/mL | first compound 0.0975 µg/mL | first compound 0.195 µg/mL
[5], partner 0.625 µg/mL | 0.891 | 0.873 | 0.784
[5], partner 1.25 µg/mL | 0.854 | 0.753 | 0.682
[5], partner 2.5 µg/mL | 0.735 | 0.617 | 0.659
[6], partner 0.625 µg/mL | 0.667 | 0.575 | 0.343
[6], partner 1.25 µg/mL | 0.63 | 0.528 | 0.288
[6], partner 2.5 µg/mL | 0.371 | 0.293 | 0.025

fitness, [6], one replicate
Settings | first compound 0.39 µg/mL | first compound 0.78 µg/mL | first compound 1.562 µg/mL | first compound 3.125 µg/mL | first compound 6.25 µg/mL
partner 0.625 µg/mL | 0.264 | 0.272 | 0.365 | 0.208 | 0.142
partner 1.25 µg/mL | 0.25 | 0.17 | 0.0862 | 0.0711 | 0.0435
partner 2.5 µg/mL | 0.018 | 0.0243 | 0.0327 | 0.0359 | 0.0405
